According to patent US20080214618A1, “Gastric Therapies Amd Compositions Therefor” (Auckland Uniservices Limited, priority 2004, published 2008):

Key:
[1] = system: H. pylori; assay: Survival / MBC of H. pylori in standard incubations (40 min, 37° C., pH 7.4); type: cell-based, Helicobacter pylori; details: for effect on H. pylori viability of each ingredient by itself at low concentration: 0.3 mM FA C12:0, 0.05% Tween 20, 200 μg/ml lansoprazole, each alone
Method: FIG. 1 The survival of H. pylori in the presence of: FA C12:0 only (▴); FA C12:0 plus 100 μg/mL lansoprazole ([…]); FA C12:0 plus 200 μg/mL lansoprazole (▪); FA C12:0 plus 300 μg/mL lansoprazole (▾); FA C12:0 plus 400 μg/mL lansoprazole (♦); FA C12:0 plus 0.05% (w/w) Tween 20 (Δ); FA C12:0 plus 100 μg/mL lansoprazole plus 0.05% (w/w) Tween 20 (◯); FA C12:0 plus 200 μg/mL lansoprazole plus 0.05% (w/w) Tween 20 (□). Cells were incubated at pH 7.4 for 40 min at 37° C.
FIG. 2 The effect of lansoprazole on the survival of H. pylori in the presence of 0.05% Tween 20 (▴), and in its absence (Δ). Cells were incubated at pH 7.4 for 40 min at 37° C.
FIG. 4 The effect of monolaurin (MG C12) on survival of H. pylori in the absence (squares) and presence (diamonds) of Tween 80 (0.4%, w/v), after 40 min exposure at 37° C. and initial pH 7.4.
These can be selected from any one or more of capric acid, lauric acid, myristic acid, myristoleic acid, palmitoleic acid, linolenic acid, monolaurin or monomyristin for example. This list is not intended to be limiting. Reference can also be made to Table 1 of Sun et al FEMS Immun. Med. Microbiol. 36, 9-17, 2003 (the disclosure of which is included herein by way of reference). The MBC is the minimum concentration of agent(s) that result(s) in a 5 log units decrease in viable cell numbers.
The effects of combinations of lansoprazole (0-400 μg/mL), 0.05% Tween 20, and FA C12:0 (0.1-1.0 mM) on the viability of H. pylori were examined in standard incubations. The results are shown in FIG. 1, and the MBCs for FA C12:0, with different combinations of lansoprazole and Tween 20, are summarised in Table 1.
Experiments to Examine Possible Interactions Between Monolaurin (MG C12) and Tween 80. The concentration profile of monolaurin on the survival of H. pylori was tested in the presence and absence of 0.4% (w/v) Tween 80, and the results are shown in FIG. 4. MG C12 on its own, has little effect in the range 0-0.3 mM. However in the range 0.3-0.5 mM MG C12 there is a sharp increase in bactericidal potency, and the killing increased by >5 log units (FIG. 4, squares).

[2] = system: Helicobacter pylori in mucus; assay: In vitro mucus/H. pylori test chamber model: survival of H. pylori in pig gastric mucus; type: cell-based, Helicobacter pylori (NCTC 11637)
Description: FIG. 3 Diagram of apparatus used to model the mucus layer in digestive tract. This test chamber was designed as an in vitro model to investigate the barrier effect of mucus in protecting H. pylori from agents present in the lumen of the stomach. […] The mucus layer (C2), contains H. pylori, with numbers of colony forming units as specified. It is held as a 1 mm thick disc between the test chamber base (B and C4) and a stainless steel mesh (A and C1). This was then inserted into a Falcon tube containing broth (D). • A. Screw top lid with a recessed top containing a stainless steel grid. • B. Base with recessed well 1 mm deep×10 mm diameter that contains mucus (shaded area—see C2) • C. Cross sectional view of chamber (A & B). 1—stainless steel mesh, 2=mucus, 3=screw top lid, 4=base • D. Chamber in a Falcon tube covered with Iso-sensitest broth (with or without additives). An H. pylori (NCTC 11637) culture was mixed with pig gastric mucus for 40 min, and then H. pylori colonies were re-isolated by dilution and plating. The re-isolated strain was used in the experiments below. PCR of the 16S rDNA piece and sequencing was used to confirm that the re-isolated bacterial strain was H. pylori. H. pylori was grown by plating on Columbia agar (Oxoid) with 5% horse serum (Fort Richard) at 37° C. for 48 h under microaerophilic conditions (80% nitrogen, 15% carbon dioxide, 5% oxygen). Two loops of 48 h agar plate culture were inoculated into pre-warmed (37° C.) Iso-sensitest broth (Oxoid) containing 5% horse serum and incubated for 24 h under microaerophilic conditions. This 24 h H. pylori broth culture (500 μL) was added to 3.5 g of thawed pre-warmed pig gastric mucus (previously frozen at −20° C.) and mixed. […] Final concentrations of surviving H. pylori colony forming units (cfu) were calculated per gram of mucus. […] Abbreviations used are: FA=0.1 or 0.2 mM lauric acid; TW=0.05% Tween 20; OM=0.58 mM omeprazole; NAC=0.245 M N-acetylcysteine. • (a) Calculated H. pylori cfu's initially added per gram of mucus. […]

Row | Compound | effect on H. pylori viability of each ingredient by itself at low concentration [1] | MBC ([1]; Helicobacter pylori, 40 min, MBC of FA C12:0 in medium with the stated additions, 40 min incubation with H. pylori at 37° C. and pH 7.4, MBC = concentration giving 5 log units decrease in viable cells, read-out: MBC (minimal bactericidal concentration of FA C12:0)) | effect of FA on its own on H. pylori survival in mucus ([2]; 0.1 mM FA experiment) | H. pylori numbers (cfu per g mucus) using 0.1 mM FA ([2]; 0.1 mM lauric acid, TW=0.05% Tween 20, OM=0.58 mM omeprazole, NAC=0.245 M N-acetylcysteine, 40 min, 37° C., pH 7.0, broth-alone control 1.29 × 10^6) | H. pylori numbers (cfu per g mucus) using 0.2 mM FA ([2]; 0.2 mM lauric acid, TW=0.05% Tween 20, OM=0.58 mM omeprazole, NAC=0.245 M N-acetylcysteine, 40 min, 37° C., pH 7.0, broth-alone control 2.64 × 10^4) | killing of H. pylori ([1]; 0.5 mM monolaurin in the absence of Tween 80, 40 min, 37° C., initial pH 7.4) | killing of H. pylori ([1]; 0.5 mM monolaurin with 0.4% Tween 80 present, 40 min, 37° C., initial pH 7.4) | effect of MG C12 on its own on survival of H. pylori ([1]; range 0-0.3 mM MG C12, no Tween 80, 40 min, 37° C., initial pH 7.4) | increase in killing of H. pylori ([1]; range 0.3-0.5 mM MG C12 on its own, 40 min, 37° C., initial pH 7.4) | effect of lansoprazole by itself on H. pylori in vitro ([1]; concentrations below 400 μg/mL, Midolo et al observation, confirmed by FIG. 2 (pH 7.4, 40 min, 37° C.))
1 | CCCCCCCCCCCC(=O)O [FA C12:0, lauric acid] | no effect | 1000 µM | minimal effect | 1.85 × 10^5 cfu per g mucus | 2.59 × 10^4 cfu per g mucus | – | – | – | – | –
2 | CCCCCCCCCCCC(=O)OCC(O)CO (centres unmarked) [MG C12, monolaurin] | – | – | – | – | – | > 5 logs | 3 logs | little effect | > 5 log units | –
3 | Cc1c(OCC(F)(F)F)ccnc1C[S+]([O-])c1nc2ccccc2[nH]1 (centres unmarked) [lansoprazole, reference compound] | no effect | – | – | – | – | – | – | – | – | little effect
